Data published in patent US20260248894A1, “COMBINATION THERAPY FOR PRETERM INFANTS” (Oak Hill Bio Ltd, priority 2022, published 2026).
Where a name gives a salt, the structure may show the parent alone. Read-outs that look alike come from different tables or passages of the source.

What was measured:
[1] = target: T1, rhIGF-1/rhIGFBP-3 drug product (Homo sapiens, UniProt P05019+P17936, DEL119-195); test: In vitro physical compatibility of test medications mixed with rhIGF-1/rhIGFBP-3 (visual observation, OD320, pH, osmolality); type: physicochemical; conditions: for visual observation (and OD320) upon mixing: mixture with rhIGF-1/rhIGFBP-3 drug product
T1 construct: purchased Takeda, Lexington, MA, USA

[2] = target: T1, rhIGF-1/rhIGFBP-3 drug product; test: Small-molecule chemical compatibility: small-molecule content post mixing by RP-HPLC-UV or ion chromatography; type: physicochemical; conditions: post mixing with rhIGF-1/rhIGFBP-3 drug product, last specified time point(s)
[3] = target: T1, rhIGF-1/rhIGFBP-3 drug product; test: Protein-specific (mass spectrometry-based) analyses of rhIGF-1/rhIGFBP-3 chemical compatibility and the final compatibility decision; type: physicochemical
insulin [4] = conditions: no compatibility data available with insulin
insulin [5] = conditions: cited from earlier work
[6] = mixed with rhIGF-1/rhIGFBP-3 drug product at representative clinical doses, room temperature

T1 sequence (P05019 49-118 limits assumed, stated change not applied): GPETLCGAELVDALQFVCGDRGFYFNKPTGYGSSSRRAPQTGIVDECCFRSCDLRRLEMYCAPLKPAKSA
T1 sequence (P17936 28-291, stated change not applied): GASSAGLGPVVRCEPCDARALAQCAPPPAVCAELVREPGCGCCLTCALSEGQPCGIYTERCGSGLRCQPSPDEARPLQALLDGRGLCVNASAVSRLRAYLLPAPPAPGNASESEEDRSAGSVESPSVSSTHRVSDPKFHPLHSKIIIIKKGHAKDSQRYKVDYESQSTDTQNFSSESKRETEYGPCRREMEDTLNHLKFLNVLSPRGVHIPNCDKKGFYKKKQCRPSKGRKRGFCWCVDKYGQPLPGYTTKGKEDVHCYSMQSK

Compound	physical compatibility with rhIGF-1/rhIGFBP-3 ([1]; conditions and doses tested)	Physical compatibility [1, 6]	Chemical compatibility for small-molecule content (RP-HPLC) [2]	further results
NCC[C@H](O)C(=O)N[C@@H]1C[C@H](N)[C@@H](O[C@H]2O[C@H](CN)[C@@H](O)[C@H](O)[C@H]2O)[C@H](O)[C@H]1O[C@H]1O[C@H](CO)[C@@H](O)[C@H](N)[C@H]1O.O=S(=O)(O)O.O=S(=O)(O)O [Amikacin sulfate]	considered incompatible	No	Yes (Chemical incompatibility was considered to be a loss of the small-molecule content of ~10% or more over the defined testing period)	decrease in pH of mixtures compared with controls ([1]; mixture with rhIGF-1/rhIGFBP-3): Mixtures demonstrated a decrease in pH of ~0.6 units
CC1(C)S[C@@H]2[C@H](NC(=O)[C@H](N)c3ccccc3)C(=O)N2[C@H]1C(=O)O [Ampicillin sodium]	considered incompatible	No	Yes (Chemical incompatibility was considered to be a loss of the small-molecule content of ~10% or more over the defined testing period)	pH change post mixing (in words) ([1]; mixture with rhIGF-1/rhIGFBP-3): Observed change in pH of rhIGF-1/rhIGFBP-3
Cn1c(=O)c2c(ncn2C)n(C)c1=O.O=C(O)CC(O)(CC(=O)O)C(=O)O [Caffeine citrate]	–	–	–	Physical compatibility [1]: Yes^a; pH difference of mixed samples compared with the control [1]: demonstrated ~1.0 unit difference compared; physical compatibility with rhIGF-1/rhIGFBP-3 [1]: physical compatibility was established
CC(CCc1ccc(O)cc1)NCCc1ccc(O)c(O)c1 (stereo not shown) [Dobutamine hydrochloride]	considered incompatible	No	Yes (Chemical incompatibility was considered to be a loss of the small-molecule content of ~10% or more over the defined testing period)	visual observation (and OD320) upon mixing [1]: physical compatibility (no precipitation, no; final compatibility decision informed by protein-specific studies / sodium (meta)bisulfite in the formulation [3]: medication is considered incompatible
Cl.NCCc1ccc(O)c(O)c1 [Dopamine hydrochloride]	–	–	–	Physical compatibility [1]: No; pH change post mixing (in words) [1]: A dopamine dose-dependent physical change; physical compatibility with rhIGF-1/rhIGFBP-3 [1]: considered incompatible; effect on rhIGF-1/rhIGFBP-3 drug product in protein-specific analyses [3]: data demonstrated an impact on the rhIGF-
OC(Cn1cncn1)(Cn1cncn1)c1ccc(F)cc1F [Fluconazole]	physical compatibility was established	Yes	Yes (Chemical incompatibility was considered to be a loss of the small-molecule content of ~10% or more over the defined testing period)	expected reaction on the basis of theoretical evaluation and the solution pH (insulin [4]): a reaction is not expected
NS(=O)(=O)c1cc(C(=O)O)c(NCc2ccco2)cc1Cl [Furosemide]	considered incompatible	No	Yes (Chemical incompatibility was considered to be a loss of the small-molecule content of ~10% or more over the defined testing period)	time after mixing to cloudiness / turbidity ([1]; mixture with rhIGF-1/rhIGFBP-3): ≤ 30 min; visual observation (and OD320) upon mixing [1]: Cloudiness observed
C[C@@H](O)[C@H]1C(=O)N2C(C(=O)O)=C(S[C@@H]3CN[C@H](C(=O)N(C)C)C3)[C@H](C)[C@H]12 [Meropenem]	considered incompatible	No	Yes (Chemical incompatibility was considered to be a loss of the small-molecule content of ~10% or more over the defined testing period)	pH change post mixing ([1]; mixture with rhIGF-1/rhIGFBP-3): Observed pH change of ~2.4 post mixing,
Cc1ncc2n1-c1ccc(Cl)cc1C(c1ccccc1F)=NC2 [Midazolam, Midazolam hydrochloride]	–	–	–	Physical compatibility [1]: Yes; physical compatibility with rhIGF-1/rhIGFBP-3 [1]: physical compatibility was established; compatibility with insulin (insulin [5]): established
NC[C@H](O)c1ccc(O)c(O)c1 [Norepinephrine bitartrate]	–	–	–	pH change post mixing (in words) [1]: Only the lowest dose was physically; physical compatibility with rhIGF-1/rhIGFBP-3 [1]: considered incompatible
CC1(C)S[C@@H]2[C@H](NC(=O)Cc3ccccc3)C(=O)N2[C@H]1C(=O)[O-].[K+] [Penicillin G, Penicillin G potassium]	considered incompatible	No	Yes (Chemical incompatibility was considered to be a loss of the small-molecule content of ~10% or more over the defined testing period)	pH shift ([1]; highest penicillin G dose of 125,000 Units/kg/30 min): pH shift (up to 1.3 pH units for the highest
CN[C@H](CC(C)C)C(=O)N[C@H]1C(=O)N[C@@H](CC(N)=O)C(=O)N[C@H]2C(=O)N[C@H]3C(=O)N[C@H](C(=O)N[C@H](C(=O)O)c4cc(O)cc(O)c4-c4cc3ccc4O)[C@H](O)c3ccc(c(Cl)c3)Oc3cc2cc(c3O[C@@H]2O[C@H](CO)[C@@H](O)[C@H](O)[C@H]2O[C@H]2C[C@](C)(N)[C@H](O)[C@H](C)O2)Oc2ccc(cc2Cl)[C@H]1O [Vancomycin hydrochloride]	–	–	–	Physical compatibility [1]: Yes; compatibility with insulin (insulin [5]): established
Gentamicin	–	–	Yes (Chemical incompatibility was considered to be a loss of the small-molecule content of ~10% or more over the defined testing period)	–
Insulin	physical compatibility was established	Yes	Yes (Chemical incompatibility was considered to be a loss of the small-molecule content of ~10% or more over the defined testing period)	–
rhIGF-1/rhIGFBP-3 drug product: recombinant human protein complex of insulin-like growth factor-1 (IGF-1) and insulin-like growth factor binding protein-3 (IGFBP-3)	–	–	–	pH value of the unmixed product ([1]; not in the mixture): 5.5
